ChEMBL document CHEMBL1201862, “PubChem BioAssay data set” (2004)
Calls of active or inactive are those of the source.

Experiments:
Caspase-3 = biological target: T1, Caspase-3 (Homo sapiens, UniProt P42574); assay type: functional;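 note: Dose-response selectivity test against caspase-3 for candidate inhibitors of sentrin-specific proteases (SENPs)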
T1 sequence (P42574 whole entry): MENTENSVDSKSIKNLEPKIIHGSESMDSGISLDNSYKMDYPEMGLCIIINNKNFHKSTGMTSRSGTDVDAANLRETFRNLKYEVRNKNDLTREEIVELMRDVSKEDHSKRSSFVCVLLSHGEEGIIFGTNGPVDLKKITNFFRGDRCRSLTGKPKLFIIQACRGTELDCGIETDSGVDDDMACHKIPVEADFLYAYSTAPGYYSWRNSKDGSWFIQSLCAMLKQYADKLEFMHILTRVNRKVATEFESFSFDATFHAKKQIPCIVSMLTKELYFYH

[1] = biological target: T2, Sentrin-specific protease 7 (Homo sapiens, UniProt Q9BQF6); assay type: functional;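 note: Luminescence-based dose-response confirmation of ultra-high-throughput screening hits, measuring inhibition of SENP7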
T2 sequence (Q9BQF6 whole entry): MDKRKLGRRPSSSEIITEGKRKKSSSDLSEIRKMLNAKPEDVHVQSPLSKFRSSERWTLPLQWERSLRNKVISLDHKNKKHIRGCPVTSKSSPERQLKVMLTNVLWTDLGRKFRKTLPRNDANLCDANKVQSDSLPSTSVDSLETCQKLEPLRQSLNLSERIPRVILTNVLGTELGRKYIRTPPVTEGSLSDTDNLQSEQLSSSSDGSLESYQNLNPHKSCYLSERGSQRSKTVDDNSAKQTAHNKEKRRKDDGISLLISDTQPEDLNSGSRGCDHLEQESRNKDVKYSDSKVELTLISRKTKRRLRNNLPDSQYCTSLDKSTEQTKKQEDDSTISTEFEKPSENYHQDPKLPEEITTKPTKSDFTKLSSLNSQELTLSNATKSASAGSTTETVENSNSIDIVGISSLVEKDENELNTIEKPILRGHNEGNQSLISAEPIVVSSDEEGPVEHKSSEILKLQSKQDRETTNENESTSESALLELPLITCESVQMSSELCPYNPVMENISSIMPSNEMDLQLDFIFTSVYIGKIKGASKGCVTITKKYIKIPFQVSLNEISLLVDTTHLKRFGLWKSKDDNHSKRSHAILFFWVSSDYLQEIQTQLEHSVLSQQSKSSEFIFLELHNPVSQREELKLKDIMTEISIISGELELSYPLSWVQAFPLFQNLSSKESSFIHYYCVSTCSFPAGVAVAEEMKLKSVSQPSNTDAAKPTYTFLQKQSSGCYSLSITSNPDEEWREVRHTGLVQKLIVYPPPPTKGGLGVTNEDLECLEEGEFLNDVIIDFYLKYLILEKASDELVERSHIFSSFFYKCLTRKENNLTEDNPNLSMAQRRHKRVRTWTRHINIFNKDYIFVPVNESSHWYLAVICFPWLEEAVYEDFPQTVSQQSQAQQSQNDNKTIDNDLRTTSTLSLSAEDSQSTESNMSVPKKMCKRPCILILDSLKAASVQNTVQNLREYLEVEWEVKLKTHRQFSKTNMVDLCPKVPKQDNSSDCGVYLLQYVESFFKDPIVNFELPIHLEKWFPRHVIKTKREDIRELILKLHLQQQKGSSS

[2] = biological target: T3, Sentrin-specific protease 6 (Homo sapiens, UniProt Q9GZR1); assay type: functional;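 note: Luminescence-based dose-response confirmatory assay of SENP6 inhibition, following up an ultra-high-throughput screen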
T3 sequence (Q9GZR1 whole entry): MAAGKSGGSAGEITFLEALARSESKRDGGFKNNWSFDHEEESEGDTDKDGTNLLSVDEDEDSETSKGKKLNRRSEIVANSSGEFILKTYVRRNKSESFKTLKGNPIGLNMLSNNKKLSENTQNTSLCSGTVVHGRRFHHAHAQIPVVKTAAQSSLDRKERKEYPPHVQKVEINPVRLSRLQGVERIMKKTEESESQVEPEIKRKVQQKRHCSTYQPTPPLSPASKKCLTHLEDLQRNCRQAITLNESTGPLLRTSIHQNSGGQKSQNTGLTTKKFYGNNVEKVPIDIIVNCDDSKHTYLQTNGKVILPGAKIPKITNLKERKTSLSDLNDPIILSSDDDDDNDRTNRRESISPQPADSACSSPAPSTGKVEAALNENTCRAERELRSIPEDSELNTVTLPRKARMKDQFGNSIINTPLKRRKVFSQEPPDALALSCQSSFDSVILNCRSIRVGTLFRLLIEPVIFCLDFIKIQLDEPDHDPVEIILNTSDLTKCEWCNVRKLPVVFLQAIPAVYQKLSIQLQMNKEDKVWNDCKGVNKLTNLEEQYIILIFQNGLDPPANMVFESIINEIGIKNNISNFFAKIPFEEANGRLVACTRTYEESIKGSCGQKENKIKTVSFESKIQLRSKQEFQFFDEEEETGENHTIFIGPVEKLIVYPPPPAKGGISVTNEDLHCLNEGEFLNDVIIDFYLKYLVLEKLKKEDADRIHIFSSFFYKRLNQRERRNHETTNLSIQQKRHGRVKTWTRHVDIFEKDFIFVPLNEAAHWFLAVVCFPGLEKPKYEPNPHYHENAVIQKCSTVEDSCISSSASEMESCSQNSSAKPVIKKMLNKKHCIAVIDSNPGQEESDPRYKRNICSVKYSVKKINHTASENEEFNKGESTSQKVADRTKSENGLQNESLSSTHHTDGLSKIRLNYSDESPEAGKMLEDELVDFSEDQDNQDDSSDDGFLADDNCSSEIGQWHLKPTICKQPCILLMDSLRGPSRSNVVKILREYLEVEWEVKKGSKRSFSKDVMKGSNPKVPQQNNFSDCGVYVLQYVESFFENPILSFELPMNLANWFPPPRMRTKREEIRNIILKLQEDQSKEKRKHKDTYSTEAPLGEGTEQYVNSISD

[3] = biological target: T4, Sentrin-specific protease 8 (Homo sapiens, UniProt Q96LD8); assay type: functional;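 note: luminescence read-out of SENP8 inhibition, dose-response confirmation following an ultra-high-throughput screen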
T4 sequence (Q96LD8 whole entry): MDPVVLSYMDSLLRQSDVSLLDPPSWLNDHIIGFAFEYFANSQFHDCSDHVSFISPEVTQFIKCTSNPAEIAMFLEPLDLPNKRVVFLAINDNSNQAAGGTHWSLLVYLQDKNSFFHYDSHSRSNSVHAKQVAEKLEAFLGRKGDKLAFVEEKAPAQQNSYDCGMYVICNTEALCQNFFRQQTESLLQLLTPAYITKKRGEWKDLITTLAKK

[4] = Luminescence Cell-Based Dose Response HTS to Identify Activators of Luciferase Translation or Activity in H4 […] Cells. [Related pubchem assays: 1829 (Project Summary), 1814 (Primary HTS)]; assay type: functional
H4 = test: Luminescence Cell-Based Dose Response HTS to Identify Activators of 5'UTR Stem-Loop Driven Prion Protein mRNA Translation in H4 Neuroglioblastoma Cells. [Related pubchem assays: 1829 (Project Summary), 1814 (Primary HTS)]; assay type: functional; details: Homo sapiens
[5] = biological target: Nuclear receptor subfamily 5 group A member 2 (Homo sapiens, UniProt O00482); assay type: functional, cell-based;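 note: HEK293T cells transfected with LRH-1 and a StAR promoter luciferase reporter; potency for inhibitors that lower LRH-1 driven reporter light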
Sequence of Nuclear receptor subfamily 5 group A member 2 (O00482 whole entry): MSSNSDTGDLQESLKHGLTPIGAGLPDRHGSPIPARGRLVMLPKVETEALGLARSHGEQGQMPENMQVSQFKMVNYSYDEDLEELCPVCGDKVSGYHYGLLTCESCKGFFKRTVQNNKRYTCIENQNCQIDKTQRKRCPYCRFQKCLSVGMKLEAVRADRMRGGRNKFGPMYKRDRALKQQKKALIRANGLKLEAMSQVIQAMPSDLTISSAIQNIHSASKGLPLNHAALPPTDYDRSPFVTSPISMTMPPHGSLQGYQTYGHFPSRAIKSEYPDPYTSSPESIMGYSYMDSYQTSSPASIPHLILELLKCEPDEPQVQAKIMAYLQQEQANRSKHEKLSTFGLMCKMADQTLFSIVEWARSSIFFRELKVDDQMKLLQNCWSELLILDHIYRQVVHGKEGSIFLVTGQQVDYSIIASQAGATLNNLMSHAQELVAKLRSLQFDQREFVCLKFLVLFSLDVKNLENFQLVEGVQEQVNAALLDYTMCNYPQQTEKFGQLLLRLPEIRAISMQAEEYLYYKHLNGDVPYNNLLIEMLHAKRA

Steroidogenic factor 1 = Steroidogenic factor 1 (Homo sapiens, UniProt Q13285); test: Counterscreen for inverse agonists of the liver receptor homolog-1 (LRH-1; NR5A2): Luminescence-based cell-based high throughput dose response assay to identify inverse agonists of the Steroidogenic Factor 1 Nuclear Receptor (SF1; NR5A1).; assay type: functional
Sequence of Steroidogenic factor 1 (Q13285 whole entry): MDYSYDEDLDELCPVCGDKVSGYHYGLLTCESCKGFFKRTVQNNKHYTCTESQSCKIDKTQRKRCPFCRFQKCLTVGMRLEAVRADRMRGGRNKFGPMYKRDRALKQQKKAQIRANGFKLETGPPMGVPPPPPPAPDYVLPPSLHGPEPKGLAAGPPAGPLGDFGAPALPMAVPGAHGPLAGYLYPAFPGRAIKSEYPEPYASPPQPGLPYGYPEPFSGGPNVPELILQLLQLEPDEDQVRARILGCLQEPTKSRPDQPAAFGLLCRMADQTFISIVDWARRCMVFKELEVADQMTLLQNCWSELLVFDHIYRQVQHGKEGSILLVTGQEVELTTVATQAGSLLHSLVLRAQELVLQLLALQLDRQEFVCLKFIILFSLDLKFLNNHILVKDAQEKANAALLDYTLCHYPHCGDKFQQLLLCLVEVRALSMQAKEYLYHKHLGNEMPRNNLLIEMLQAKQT

[6] = StAR promoter reporter inhibition counter-screen, dose response, counter-screen for LRH-1 inverse agonist project, cell-based, luminescence, luciferase reporter (AID 651969); assay type: functional
Protein Wnt-3a = Protein Wnt-3a (Mus musculus, UniProt P27467); test: Wnt3a-driven reporter signaling inhibition, dose response, selectivity assay for Gli-SUFU antagonist project, Wnt-LIGHT cells, luminescence (AID 651570); assay type: functional; details: read-out: IC50_Mean;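 note: Wnt-LIGHT reporter cells stimulated with conditioned medium from Wnt3a-producing cells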
Sequence of Protein Wnt-3a (P27467 whole entry): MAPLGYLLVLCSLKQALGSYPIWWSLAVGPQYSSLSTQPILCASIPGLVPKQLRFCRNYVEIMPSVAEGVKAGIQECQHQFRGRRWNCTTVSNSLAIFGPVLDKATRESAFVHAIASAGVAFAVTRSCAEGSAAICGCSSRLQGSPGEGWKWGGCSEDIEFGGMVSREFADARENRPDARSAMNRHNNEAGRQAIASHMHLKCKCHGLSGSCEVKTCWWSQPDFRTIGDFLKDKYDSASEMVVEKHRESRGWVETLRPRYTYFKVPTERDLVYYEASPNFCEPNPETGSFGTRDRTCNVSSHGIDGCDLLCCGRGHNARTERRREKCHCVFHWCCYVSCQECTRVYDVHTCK

HEK293 = test: cells; assay type: functional, cell-based; details: Homo sapiens
[7] = biological target: T5, Nuclear receptor subfamily 0 group B member 1 (Homo sapiens, UniProt P51843); test: Luminescence-based cell-based high throughput dose response assay for inhibitors of the orphan nuclear receptor subfamily 0, group B, member 1 (DAX1; NR0B1). [Related pubchem assays (depositor defined):AID504766, AID504790]; assay type: functional
T5 sequence (P51843 whole entry): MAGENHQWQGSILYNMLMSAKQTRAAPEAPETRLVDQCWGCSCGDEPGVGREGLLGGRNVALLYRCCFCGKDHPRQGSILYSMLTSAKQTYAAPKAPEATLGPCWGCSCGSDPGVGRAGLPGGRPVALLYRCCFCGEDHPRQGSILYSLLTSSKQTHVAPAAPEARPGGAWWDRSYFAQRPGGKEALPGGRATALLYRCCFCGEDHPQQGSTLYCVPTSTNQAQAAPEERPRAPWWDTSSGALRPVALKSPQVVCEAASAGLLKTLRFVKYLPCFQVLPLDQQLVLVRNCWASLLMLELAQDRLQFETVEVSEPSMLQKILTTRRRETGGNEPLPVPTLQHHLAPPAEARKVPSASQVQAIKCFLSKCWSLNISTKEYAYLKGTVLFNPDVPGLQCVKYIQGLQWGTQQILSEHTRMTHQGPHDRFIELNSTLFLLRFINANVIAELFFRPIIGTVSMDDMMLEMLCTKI

Genome polyprotein = Genome polyprotein (dengue virus type 2, UniProt P29990); test: Dengue-2 NS5 methyltransferase inhibitors, primary screen, biochemical, confirmation dose response (AID 588689); assay type: functional
Sequence of Genome polyprotein (P29990 2492-3391 limits assumed): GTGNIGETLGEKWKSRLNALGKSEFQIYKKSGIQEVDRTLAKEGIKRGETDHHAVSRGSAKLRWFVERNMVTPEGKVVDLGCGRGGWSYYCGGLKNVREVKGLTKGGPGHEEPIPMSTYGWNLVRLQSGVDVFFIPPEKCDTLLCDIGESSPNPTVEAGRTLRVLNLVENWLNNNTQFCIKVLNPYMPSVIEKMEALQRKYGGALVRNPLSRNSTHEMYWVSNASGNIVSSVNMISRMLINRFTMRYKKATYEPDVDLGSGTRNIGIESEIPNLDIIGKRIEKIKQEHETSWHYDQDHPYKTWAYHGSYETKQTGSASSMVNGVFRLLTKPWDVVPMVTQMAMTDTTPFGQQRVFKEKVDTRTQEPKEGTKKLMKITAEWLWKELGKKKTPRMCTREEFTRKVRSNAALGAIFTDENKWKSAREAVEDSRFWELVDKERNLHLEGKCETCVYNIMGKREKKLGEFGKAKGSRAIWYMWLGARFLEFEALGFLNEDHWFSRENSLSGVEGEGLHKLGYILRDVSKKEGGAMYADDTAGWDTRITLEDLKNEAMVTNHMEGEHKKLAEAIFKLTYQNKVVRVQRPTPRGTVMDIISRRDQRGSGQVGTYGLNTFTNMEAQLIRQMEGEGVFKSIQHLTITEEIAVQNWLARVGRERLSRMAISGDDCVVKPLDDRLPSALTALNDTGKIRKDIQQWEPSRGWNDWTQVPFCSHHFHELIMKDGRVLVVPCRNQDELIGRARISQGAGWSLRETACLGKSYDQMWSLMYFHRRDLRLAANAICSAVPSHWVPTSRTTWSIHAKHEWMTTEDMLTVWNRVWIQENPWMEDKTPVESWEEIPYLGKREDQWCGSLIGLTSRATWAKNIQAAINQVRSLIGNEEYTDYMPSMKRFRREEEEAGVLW

BJ [8] = test: cytotoxicity toward BJ-TERT fibroblasts, dose response, cell-based, RAS-independent, luminescence (AID 1933); assay type: functional; details: Homo sapiens
BJ [9] = test: cells; assay type: functional, cell-based; details: Homo sapiens
BJ [10] = test: cytotoxicity toward BJ-TERT-LT-ST fibroblasts, dose response, cell-based, RAS-independent, luminescence (AID 1935); assay type: functional; details: Homo sapiens;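 note: BJ fibroblasts immortalized with TERT plus LT and ST oncogenes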
[11] = cytotoxicity toward DRD oncogenic fibroblasts, dose response, cell-based, non-viral oncogenic, luminescence (AID 1934); assay type: functional; details: Homo sapiens
BJ [12] = test: cytotoxicity toward Ras-transformed BJeLR fibroblasts, dose response, cell-based, alamar blue fluorescence, cherrypicked samples (AID 2631); assay type: functional; details: Homo sapiens;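 note: confirmatory dose-response assay in RAS-dependent BJ fibroblasts engineered with TERT, LT and ST, with cytotoxicity read by fluorescence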
Vero = test: cells; assay type: functional; details: Chlorocebus sabaeus
[13] = biological target: Luciferin 4-monooxygenase (Photinus pyralis, UniProt P08659); test: firefly luciferase enzyme inhibitors, dose response, biochemical, luminescence (AID 1891)
Sequence of Luciferin 4-monooxygenase (P08659 whole entry): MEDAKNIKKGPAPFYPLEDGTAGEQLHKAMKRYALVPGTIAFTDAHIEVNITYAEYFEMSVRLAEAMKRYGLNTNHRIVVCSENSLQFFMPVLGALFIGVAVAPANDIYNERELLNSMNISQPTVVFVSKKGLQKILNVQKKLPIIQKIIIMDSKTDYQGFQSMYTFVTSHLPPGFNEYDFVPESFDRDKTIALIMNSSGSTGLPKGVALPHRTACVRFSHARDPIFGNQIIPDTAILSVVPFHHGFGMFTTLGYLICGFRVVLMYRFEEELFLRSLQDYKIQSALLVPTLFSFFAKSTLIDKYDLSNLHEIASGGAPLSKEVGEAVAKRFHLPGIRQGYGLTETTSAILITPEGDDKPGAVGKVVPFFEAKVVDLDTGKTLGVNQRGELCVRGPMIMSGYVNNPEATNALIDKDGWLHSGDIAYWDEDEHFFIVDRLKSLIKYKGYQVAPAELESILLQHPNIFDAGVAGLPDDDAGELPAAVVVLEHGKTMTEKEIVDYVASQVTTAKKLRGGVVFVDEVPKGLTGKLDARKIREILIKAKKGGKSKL

[14] = Luminescence Cell-Based Dose Confirmation HTS to Identify Inhibitors of Platelet Dense Granule Release. [Related pubchem assays: 1663 (Primary HTS), 1678 (Summary of Project)]; assay type: functional
Cysteine protease ATG4B = biological target: T6, Cysteine protease ATG4B (Homo sapiens, UniProt Q9Y4P1); assay type: functional;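 note: Fluorescence-based dose-response confirmation assay measuring inhibition of ATG4B activity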
T6 sequence (Q9Y4P1 whole entry): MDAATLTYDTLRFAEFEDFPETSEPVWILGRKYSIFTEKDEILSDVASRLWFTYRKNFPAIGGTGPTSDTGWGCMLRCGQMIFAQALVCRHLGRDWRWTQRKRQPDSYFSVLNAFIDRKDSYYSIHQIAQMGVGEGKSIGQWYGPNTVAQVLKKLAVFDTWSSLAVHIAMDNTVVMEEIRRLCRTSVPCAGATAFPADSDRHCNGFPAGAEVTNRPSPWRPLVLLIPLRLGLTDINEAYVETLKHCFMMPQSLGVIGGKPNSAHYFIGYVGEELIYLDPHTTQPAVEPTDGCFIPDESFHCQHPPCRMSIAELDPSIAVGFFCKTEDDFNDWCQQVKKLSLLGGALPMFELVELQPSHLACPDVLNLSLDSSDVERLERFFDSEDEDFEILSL

Phospholipase A2 = Phospholipase A2 (Homo sapiens, UniProt P04054); assay type: functional;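 note: confirmatory dose-response counterscreen on phospholipase A2, testing hits that came from an ultra-high-throughput screen for ATG4B inhibitors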
Sequence of Phospholipase A2 (P04054 whole entry): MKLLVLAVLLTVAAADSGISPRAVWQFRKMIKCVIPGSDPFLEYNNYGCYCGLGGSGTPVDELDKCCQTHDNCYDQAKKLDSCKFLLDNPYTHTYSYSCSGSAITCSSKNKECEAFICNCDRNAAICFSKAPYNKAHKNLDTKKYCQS

[15] = biological target: Tyrosine-protein phosphatase non-receptor type 11 (Homo sapiens, UniProt Q06124); test: SHP2 phosphatase inhibition, dose response, selectivity assay for STEP inhibitor project, biochemical (AID 602367); assay type: functional; details: read-out: IC50_Mean
Sequence of Tyrosine-protein phosphatase non-receptor type 11 (Q06124 whole entry): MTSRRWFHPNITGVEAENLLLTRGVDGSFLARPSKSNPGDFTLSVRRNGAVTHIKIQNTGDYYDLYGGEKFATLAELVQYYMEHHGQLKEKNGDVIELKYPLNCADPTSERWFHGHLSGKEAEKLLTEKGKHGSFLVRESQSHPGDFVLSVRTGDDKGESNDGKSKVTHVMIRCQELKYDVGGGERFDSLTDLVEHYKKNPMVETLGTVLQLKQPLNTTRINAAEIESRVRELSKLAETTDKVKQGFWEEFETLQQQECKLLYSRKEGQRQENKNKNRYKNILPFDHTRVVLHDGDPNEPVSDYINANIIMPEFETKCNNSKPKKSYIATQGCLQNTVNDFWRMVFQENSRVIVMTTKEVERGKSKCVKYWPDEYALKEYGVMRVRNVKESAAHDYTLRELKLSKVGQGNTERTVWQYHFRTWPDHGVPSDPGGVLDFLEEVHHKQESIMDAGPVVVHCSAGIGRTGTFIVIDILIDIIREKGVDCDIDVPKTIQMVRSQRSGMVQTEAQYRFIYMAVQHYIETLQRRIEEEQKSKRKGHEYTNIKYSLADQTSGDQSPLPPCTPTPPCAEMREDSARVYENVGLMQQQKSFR

[16] = biological target: Tyrosine-protein phosphatase non-receptor type 5 (Homo sapiens, UniProt P54829); test: STEP phosphatase inhibitors, confirmation, biochemical, fluorescence intensity, uHTS hits (AID 602372); assay type: functional; details: read-out: IC50_Mean
Sequence of Tyrosine-protein phosphatase non-receptor type 5 (P54829 whole entry): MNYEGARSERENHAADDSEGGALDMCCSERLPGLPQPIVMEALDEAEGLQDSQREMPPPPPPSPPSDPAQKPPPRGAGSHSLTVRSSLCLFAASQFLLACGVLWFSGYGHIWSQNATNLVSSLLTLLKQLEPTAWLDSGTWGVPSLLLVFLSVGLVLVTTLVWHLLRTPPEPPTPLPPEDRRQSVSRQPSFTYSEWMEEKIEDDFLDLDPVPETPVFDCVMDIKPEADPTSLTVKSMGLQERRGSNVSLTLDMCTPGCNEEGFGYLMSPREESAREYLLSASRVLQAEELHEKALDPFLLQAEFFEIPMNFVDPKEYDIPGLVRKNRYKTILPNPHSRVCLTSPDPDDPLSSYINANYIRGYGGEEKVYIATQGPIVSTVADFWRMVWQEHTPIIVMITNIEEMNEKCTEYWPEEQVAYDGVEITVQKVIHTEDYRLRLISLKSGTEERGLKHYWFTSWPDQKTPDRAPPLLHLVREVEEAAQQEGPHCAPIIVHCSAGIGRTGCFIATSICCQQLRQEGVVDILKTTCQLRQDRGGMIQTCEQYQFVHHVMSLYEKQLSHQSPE

[17] = biological target: Dual specificity protein phosphatase 3 (Homo sapiens, UniProt P51452); test: VHR phosphatase inhibition, dose response, selectivity assay for STEP inhibitor project, biochemical (AID 602374); assay type: functional; details: read-out: IC50_Mean
Sequence of Dual specificity protein phosphatase 3 (P51452 whole entry): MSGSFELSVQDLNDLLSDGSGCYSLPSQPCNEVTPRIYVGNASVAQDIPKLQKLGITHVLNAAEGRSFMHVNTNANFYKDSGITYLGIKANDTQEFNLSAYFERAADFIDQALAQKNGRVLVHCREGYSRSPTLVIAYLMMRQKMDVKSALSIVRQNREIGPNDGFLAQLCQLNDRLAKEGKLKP

Compound: CCOc1ccc2nc(NC(=O)CSc3cnn[nH]3)sc2c1
- IC50 (Caspase-3): 16.3 µM (active)
- IC50 [1]: 11.7 µM (active)
- IC50 [2]: 32.8 µM (active)
- IC50 [3]: 44.1 µM (active)

Compound: Clc1nnc(N/N=C/c2ccccc2)c2ccccc12
- EC50 [4]: 0.694 µM (active)
- EC50 (H4): 5.27 µM (active)
- IC50 (Caspase-3): 6.38 µM (active)
- IC50 [1]: 2.83 µM (active)
- IC50 [2]: 5.57 µM (active)
- IC50 [3]: 8.2 µM (active)

Compound: COC(=O)c1ccc(NC(=O)CN2CCN(c3ccc(Cl)cc3)CC2)cc1
- IC50 [5]: 35.9 µM (inactive)
- IC50 (Steroidogenic factor 1): 30.7 µM (inactive)
- IC50 [6]: 35.9 µM (inactive)

Compound: O=[N+]([O-])c1ccc(N2CCN(C(=S)NCc3ccc(Cl)cc3)CC2)cc1
- IC50 (Protein Wnt-3a): 5.08 µM (active)

Compound: CCN(CC)N=Nc1cccc(NC(C)=O)c1
- IC50 (HEK293): > 67.5 µM (inactive)
- IC50 [7]: > 67.5 µM (inactive)

Compound: CCOc1cc(/C=C2\C(=O)NC(=O)N(C)C2=O)cc([N+](=O)[O-])c1O
- IC50 (HEK293): 51.7 µM (inactive)
- IC50 (Genome polyprotein): 19.9 µM (active)
- IC50 [7]: > 67.5 µM (inactive)

Compound: COc1ccc(OC)c(Nc2nc(N)nc(CCl)n2)c1
- EC50 (BJ [8]): 0.258 µM (active)
- EC50 (BJ [9]): 4.66 µM (inconclusive)
- EC50 (BJ [10]): > 150 µM (inconclusive)
- EC50 [11]: 2.16 µM (active)
- EC50 (BJ [12]): 15.7 µM (active)
- CC50 (Vero): 7.93 µM (active)

Compound: Cc1cccc(OCC(=O)Nc2ccccc2-c2ccccc2)c1
- EC50 [13]: 73.8 µM (active)
- EC50 [14]: > 112 µM (not active)
- IC50 (Cysteine protease ATG4B): 11.5 µM (active)
- IC50 (Phospholipase A2): 11.9 µM (active)

Compound: CC/C=C\C/C=C\C/C=C\CCCCCCCC(=O)O [LINOLENIC ACID]
- IC50 (Cysteine protease ATG4B): 15.3 µM (active)
- IC50 (Phospholipase A2): 22.3 µM (inactive)

Compound: Clc1ccc(-c2c[n+](-c3ccccc3)c3n2CCS3)cc1
- IC50 (Protein Wnt-3a): 22.5 µM (inactive)

Compound: COCCCN(C(S)=Nc1c(C)cc(C)cc1C)C(C)c1ccccn1 (stereo not given)
- IC50 [15]: 15.1 µM (active)
- IC50 [16]: > 80 µM (inactive)
- IC50 [17]: 4.94 µM (active)
